Common to all, as to assay type: functional
For test [1], the system named is Staphylococcus aureus. The test is described as follows: Antibacterial activity against SCCmec type 3 genotype-positive and methicillin-resistant Staphylococcus aureus clinical isolates after 24 hrs by broth microdilution method.
Test [2] has as its system Staphylococcus aureus. The test is described as follows: Antibacterial activity against SCCmec type 3 genotype-positive and methicillin-resistant Staphylococcus aureus clinical isolates after 24 hrs by chequerboard method in presence of ampicillin.
Test [3] has as its system Staphylococcus aureus. Kind of test: Antibacterial activity against SCCmec type 3 genotype-positive and methicillin-resistant Staphylococcus aureus clinical isolates after 24 hrs by chequerboard method in presence of azithromycin.
In test [4] the test system is Staphylococcus aureus. The test is described as follows: Antibacterial activity against SCCmec type 3 genotype-positive and methicillin-resistant Staphylococcus aureus clinical isolates after 24 hrs by chequerboard method in presence of cefazolin.
The test system of test [5] is Staphylococcus aureus. The test is described as follows: Antibacterial activity against SCCmec type 3 genotype-positive and methicillin-resistant Staphylococcus aureus clinical isolates after 24 hrs by chequerboard method in presence of levofloxacin.

≈ marks a conversion by molar mass, not a printed value.

For `COS(=O)(=O)[O-].COc1ccc2c(c1OC)C[N+]1(C)CCc3cc4c(cc3C1=C2)OCO4` (stereo not drawn), in the test on Staphylococcus aureus [1], the MBC – broadly, the smallest concentration meeting the test's criterion for killing – worked out at 256 µg/mL and the MIC – broadly, the lowest concentration found to suppress growth – is 64 µg/mL. In addition, in the test on Staphylococcus aureus [2], the FICI50 worked out at 2, the FICI90 is listed as 2 and the “fractional inhibitory concentration index (FICI)” value turned out to be 1.5. Besides, in the test with Staphylococcus aureus [3], the FICI50 was 0.375, the FICI90 is given as 0.5 and the “fractional inhibitory concentration index (FICI)” value is on record as 0.188. Also, in the test on Staphylococcus aureus [4], the FICI50 stood at 2, the FICI90 was 2 and the “fractional inhibitory concentration index (FICI)” value stood at 1.5. Besides, in the test with Staphylococcus aureus [5], the FICI50 came to 0.375, the FICI90 is recorded as 0.5 and the “fractional inhibitory concentration index (FICI)” value is listed as 0.25.
As for `CC1(C)S[C@@H]2[C@H](NC(=O)[C@H](N)c3ccccc3)C(=O)N2[C@H]1C(=O)O` [AMPICILLIN], in the test with Staphylococcus aureus [1], the MBC was 64 µg/mL (≈ 183 µM).
Take `CC[C@H]1OC(=O)[C@H](C)[C@@H](O[C@H]2C[C@@](C)(OC)[C@@H](O)[C@H](C)O2)[C@H](C)[C@@H](O[C@@H]2O[C@H](C)C[C@H](N(C)C)[C@H]2O)[C@](C)(O)C[C@@H](C)CN(C)[C@H](C)[C@@H](O)[C@]1(C)O` [AZITHROMYCIN]: the MIC in the test on Staphylococcus aureus [1] was found to be 2000 µg/mL (≈ 2670 µM).
Compound `COc1ccc2cc3[n+](cc2c1OC)CCc1cc2c(cc1-3)OCO2.[Cl-]` [BERBERINE CHLORIDE] registered an MBC in the test on Staphylococcus aureus [1] of 64 µg/mL. The compound also returned an MIC against Staphylococcus aureus [1] of 32 µg/mL. The FICI50 with Staphylococcus aureus [2] turned out to be 2; with Staphylococcus aureus [3] it was 0.313; in the test with Staphylococcus aureus [4] it was 2; in the test with Staphylococcus aureus [5] it was 0.5. Besides, the FICI90 turned out to be 2 in the test on Staphylococcus aureus [2], 0.5 in the test on Staphylococcus aureus [3], 2 with Staphylococcus aureus [4] and 0.75 in the test with Staphylococcus aureus [5]. Also, the “fractional inhibitory concentration index (FICI)” value in the test with Staphylococcus aureus [2] is 1.5; with Staphylococcus aureus [3] it was 0.25; with Staphylococcus aureus [4], 1.5; with Staphylococcus aureus [5] it was 0.375.
In the test on Staphylococcus aureus [1], `C[C@H]1COc2c(N3CCN(C)CC3)c(F)cc3c(=O)c(C(=O)O)cn1c23.C[C@H]1COc2c(N3CCN(C)CC3)c(F)cc3c(=O)c(C(=O)O)cn1c23.O` [LEVOFLOXACIN] yielded an MBC of 8 µg/mL and an MIC of 2 µg/mL.
In the test with Staphylococcus aureus [1], `CN[C@H](CC(C)C)C(=O)N[C@H]1C(=O)N[C@@H](CC(N)=O)C(=O)N[C@H]2C(=O)N[C@H]3C(=O)N[C@H](C(=O)N[C@H](C(=O)O)c4cc(O)cc(O)c4-c4cc3ccc4O)[C@H](O)c3ccc(c(Cl)c3)Oc3cc2cc(c3O[C@@H]2O[C@H](CO)[C@@H](O)[C@H](O)[C@H]2O[C@H]2C[C@](C)(N)[C@H](O)[C@H](C)O2)Oc2ccc(cc2Cl)[C@H]1O` [VANCOMYCIN] yielded an MBC of 2 µg/mL (≈ 1.38 µM).

Source of the values: ChEMBL document CHEMBL2424578, “Synergistic effects of berberines with antibiotics on clinical multi-drug resistant isolates of methicillin-resistant Staphylococcus aureus (MRSA)” (2013).
